Measured values taken from PubChem BioAssay (NCI).
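1) Cells in 96-well plates. 2) Compound, 48 h, 5 concentrations. 3) Linear interpolation between surrounding doses. 4) Unreached endpoint = highest concentration. The concentration for full growth arrest is given as TGI.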

Legend:
Experiment in all cases: NCI tumour cell line growth inhibition, 48 h
A498 renal = system: A498 renal
ACHN renal = system: ACHN renal
BT-549 breast = system: BT-549 breast
COLO 205 colon = system: COLO 205 colon
IGROV1 ovarian = system: IGROV1 ovarian
MCF7 breast = system: MCF7 breast
NCI-H226 lung = system: NCI-H226 lung
SF-295 CNS = system: SF-295 CNS
SK-OV-3 ovarian = system: SK-OV-3 ovarian
TK-10 renal = system: TK-10 renal

Row | Compound | TGI (A498 renal) [µM] | TGI (ACHN renal) [µM] | TGI (BT-549 breast) [µM] | TGI (COLO 205 colon) [µM] | TGI (IGROV1 ovarian) [µM] | TGI (MCF7 breast) [µM] | TGI (NCI-H226 lung) [µM] | TGI (SF-295 CNS) [µM] | TGI (SK-OV-3 ovarian) [µM] | TGI (TK-10 renal) [µM]
1 | Nc1ncnc2c1ncn2CCCNO | > 100 | > 100 | > 100 | > 100 | > 100 | > 100 | > 100 | > 100 | > 100 | > 100
2 | O=C(O)C1C2OC(C(Br)C2Br)C1C(=O)O (stereo not given) | > 100 | > 100 | > 100 | > 100 | > 100 | > 100 | > 100 | > 100 | > 100 | > 100
3 | FC(F)(Sc1ncccn1)c1nc2ccccc2o1 | > 100 | > 100 | > 100 | > 100 | > 100 | > 100 | > 100 | > 100 | > 100 | > 100
4 | C=C(C)C1CCC2(C)C1CCC1(C)C2CCC2C3(C)C4OC(OC4=O)C(C)(C)C3CCC21C (stereo not given) | > 100 | > 100 | > 100 | > 100 | > 100 | > 100 | > 100 | > 100 | > 100 | > 100
5 | CCCCCCCCCCCCCCCC[N+](C)(C)CCl | 32.2 | 8.36 | 7.87 | 4.16 | 1.31 | > 28.9 | 6.25 | 6.06 | 27.7 | 6.41
6 | Fc1nc(Sc2ncnc3nc[nH]c23)nc(-c2c3ccccc3c3sc4ccccc4n23)n1 | > 100 | > 100 | > 100 | > 100 | > 100 | > 100 | > 100 | > 100 | > 100 | > 100
7 | O=C(Nc1nnc(-c2ccccc2)o1)C(SC(=S)N1CCCC1)c1ccccc1 (stereo not given) | 81.6 | > 100 | 90 | > 100 | > 100 | > 100 | > 100 | > 100 | > 100 | > 100
8 | COc1ccc(Nc2nc(N)c(C(=O)c3ccco3)s2)cc1 | > 61.1 | > 100 | > 100 | > 100 | > 100 | > 100 | > 72.2 | > 100 | > 100 | > 57.5
9 | CC(CSc1nc2c(c(=N)n1-c1ccccc1)c(=S)n(-c1ccccc1)c(=S)n2-c1ccccc1)CN(C)C (stereo not given) | 6 | 3.15 | 3.52 | 3.48 | 2.79 | 1.05 | 14.2 | 16.7 | 11.6 | 3.07
10 | Fc1cccc(C2ON=C(c3ccccc3)N2C23CC4CC(CC(C4)C2)C3)c1 (stereo not given) | > 10 | > 10 | > 10 | > 10 | > 10 | > 10 | > 10 | > 10 | > 10 | > 10
11 | CC(C)(C)c1cc(C(C)(C)C)c2sc(=O)oc2c1O | 27.3 | 24.8 | 32.9 | 33.7 | 27.7 | 28 | 36.2 | 23.9 | 35.3 | 24.1
12 | Clc1ccc(-c2nn3c(COc4ccc(OCc5nnc6sc(-c7ccc(Cl)cc7)nn56)c(Cl)c4)nnc3s2)cc1 | 71.1 | > 100 | 52.7 | > 100 | 43.9 | > 100 | > 100 | > 100 | > 100 | 45.7
13 | Cc1cn([C@H]2CN(O)C[C@@H](CO)O2)c(=O)[nH]c1=O | > 100 | > 100 | > 100 | > 100 | > 100 | > 100 | > 100 | > 100 | > 100 | > 100
14 | CCCCCCCC(=O)OC[n+]1cccc(-c2c(COC(=O)NC(C)C)c(COC(=O)NC(C)C)c3n2CCC3)c1 | > 89.4 | > 100 | > 100 | > 100 | > 100 | > 100 | > 100 | > 100 | > 100 | > 100
15 | CCOC1OC(C)(C=C(C#N)C#N)CCC1C (stereo not given) | 51 | > 100 | > 70.3 | > 100 | 36.8 | > 100 | 55.2 | > 100 | > 100 | > 100
